Assay results published in PMC6520686, “Activation Studies of the γ-Carbonic Anhydrases from the Antarctic Marine Bacteria Pseudoalteromonas haloplanktis and Colwellia psychrerythraea with Amino Acids and Amines” (Marine Drugs, 2019).

Columns and labels:
CpsCA = system: T1, CpsCA; assay: stopped-flow CO2 hydration assay; format: biochemical, Colwellia psychrerythraea; conditions: activation constant (activator); CO2 substrate; TRIS pH 8.3, 0.1 M NaClO4, 25 °C; 15 min pre-incubation
T1 construct: purified recombinant gamma-class enzyme
Text: stopped-flow CO2 hydration assay on CpsCA

PhaCA = system: T2, PhaCA; assay: stopped-flow CO2 hydration assay; format: biochemical, Pseudoalteromonas haloplanktis; conditions: activation constant (activator); CO2 substrate; TRIS pH 8.3, 0.1 M NaClO4, 25 °C; 15 min pre-incubation
T2 construct: purified recombinant gamma-class enzyme
Text: stopped-flow CO2 hydration assay on PhaCA

| Structure (SMILES) | KA (μM) * / CpsCA ^b (CpsCA) | KA (μM) * / PhaCA ^b (PhaCA) |
| --- | --- | --- |
| Nc1ccc(C[C@H](N)C(=O)O)cc1 [compound 11, 4-H2N-L-Phe] | 17.2 µM | 3.27 µM |
| N[C@H](Cc1ccccc1)C(=O)O [compound 4, D-Phe] | 15.4 µM | 3.19 µM |
| N[C@@H](Cc1ccc(O)cc1)C(=O)O [compound 9, L-Tyr] | 19.5 µM | 1.02 µM |
| N[C@H](Cc1ccc(O)cc1)C(=O)O [compound 10, D-Tyr] | 18.4 µM | 7.35 µM |
| N[C@@H](Cc1c[nH]c2ccccc12)C(=O)O [compound 7, L-Trp] | 21.3 µM | 7.12 µM |
| N[C@H](Cc1ccc(O)c(O)c1)C(=O)O [compound 6, D-DOPA] | 11.2 µM | 0.72 µM |
| N[C@@H](Cc1ccc(O)c(O)c1)C(=O)O [compound 5, L-DOPA] | 4.79 µM | 1.08 µM |
| NCCc1c[nH]cn1 [compound 12, Histamine] | 20.6 µM | 6.48 µM |
| NCCc1ccc(O)c(O)c1 [compound 13, Dopamine] | – | 8.70 µM |
| N[C@H](CCC(=O)O)C(=O)O [compound 23, D-Glu] | 12.0 µM | – |
| NCc1ccccn1 [compound 15, 2-Pyridyl-methylamine] | 21.5 µM | 2.39 µM |
